Reference: US5270325A, “P-hydroxy phenone derivatives used in the treatment of cardiac arrhythmia” (BASF Aktiengesellschaft, priority 1988, dated 1993)

What was measured:
QT interval = assay: Class III antiarrhythmic action in guinea-pigs after intravenous administration (increase in the QT interval, ECG); assay type: in vivo, Pirbright white guinea-pigs; conditions: Cavia porcellus, anesthetized (urethane) guinea-pigs, ED 20% from linear relation between log dose and relative increase in the QT interval
Description: The experimental animals are male and female Pirbright white guinea-pigs weighing from 300 to 500 g. They are anesthetized with 1.5 g/kg urethane i.p. The substances are administered intravenously. The ECG conduction times and the heart rate are measured from a recording from extremity lead II. The measured variables are the QT and PQ intervals and the heart rate. 4 to 6 animals are used per dose. The criterion of a class III action is an increase in the QT interval compared with the values before administration of the substance. An increase in PQ and a large decrease in the heart rate serve as exclusion criteria. The ED 20% is calculated from the linear relation between log dose (mg/kg) of the substance and the relative increase in the QT interval (in %).

arrhythmias = conditions: literature: Circulation 68 (1983) 88-94; Am. Heart J. 109 (1985) 949-958; J. Clin. Pharmacol. 27 (1987) 708; cited from earlier work

| SMILES | ED (20%) (QT interval) | acting against arrhythmias which are otherwise resistant to therapy (arrhythmias) |
| --- | --- | --- |
| Cc1cc(C(=O)/C=C/c2cccn2C)cc(C)c1OCCN1CCCC1.O=C(O)/C=C/C(=O)O [Example 2, 3,5-Dimethyl-4-[2-(1-pyrrolidinyl)ethoxy]phenyl E-2-(1-methyl-2-pyrrolyl)ethenyl ketone fumarate] | 1.1 mg/kg | – |
| CCCCc1oc2ccccc2c1C(=O)c1cc(I)c(OCCN(CC)CC)c(I)c1 [amiodarone] | – | acting against arrhythmias which are otherwise resistant to therapy, especially reentry arrhythmias |
| CC(C)NCC(O)c1ccc(NS(C)(=O)=O)cc1 (single isomer, unassigned) [D-Sotalol] | 3.6 mg/kg | acting against arrhythmias which are otherwise resistant to therapy, especially reentry arrhythmias |
| Cc1ccsc1/C=C/C(=O)c1cc(C)c(OCCN2CCCC2)c(C)c1.O=C(O)/C=C/C(=O)O [Example 4, 3,5-Dimethyl-4-[2-(1-pyrrolidinyl)ethoxy]phenyl E-2-(3-methyl-2-thienyl)ethenyl ketone fumarate] | 1.2 mg/kg | – |
| Cc1cc(C(=O)/C=C/c2ccccc2C(F)(F)F)cc(C)c1OCCN1CCCC1.O=C(O)/C=C/C(=O)O [Example 5, 3',5'-Dimethyl-4'-[2-(1-pyrrolidinyl)ethoxy]-2-trifluoromethylchalcone fumarate] | 1 mg/kg | – |
